Test results as given in patent US20130165475A1, “DEUTERIUM-ENRICHED HETEROCYCLIC COMPOUNDS AS KINASE INHIBITORS” (ASCEPION PHARMACEUTICALS, INC., priority 2010, published 2013).
Counter-ions that a name gives are not always drawn.

How the values were obtained:
VEGFR2 = biological target: T1, VEGFR2 (Homo sapiens, UniProt P35968); assay: VEGFR2 cell-based assay (ELISA, phosphor-/total VEGFR2 in transfected CHO cells); conditions: compound at 100 nM; CHO cells transfected with full length VEGFR2; FBS stimulation; read-out: % VEGFR2 kinase activity remains
T1 construct: expressed in transfected cells; host or cells: CHO cells
T1 sequence (P35968 20-1356): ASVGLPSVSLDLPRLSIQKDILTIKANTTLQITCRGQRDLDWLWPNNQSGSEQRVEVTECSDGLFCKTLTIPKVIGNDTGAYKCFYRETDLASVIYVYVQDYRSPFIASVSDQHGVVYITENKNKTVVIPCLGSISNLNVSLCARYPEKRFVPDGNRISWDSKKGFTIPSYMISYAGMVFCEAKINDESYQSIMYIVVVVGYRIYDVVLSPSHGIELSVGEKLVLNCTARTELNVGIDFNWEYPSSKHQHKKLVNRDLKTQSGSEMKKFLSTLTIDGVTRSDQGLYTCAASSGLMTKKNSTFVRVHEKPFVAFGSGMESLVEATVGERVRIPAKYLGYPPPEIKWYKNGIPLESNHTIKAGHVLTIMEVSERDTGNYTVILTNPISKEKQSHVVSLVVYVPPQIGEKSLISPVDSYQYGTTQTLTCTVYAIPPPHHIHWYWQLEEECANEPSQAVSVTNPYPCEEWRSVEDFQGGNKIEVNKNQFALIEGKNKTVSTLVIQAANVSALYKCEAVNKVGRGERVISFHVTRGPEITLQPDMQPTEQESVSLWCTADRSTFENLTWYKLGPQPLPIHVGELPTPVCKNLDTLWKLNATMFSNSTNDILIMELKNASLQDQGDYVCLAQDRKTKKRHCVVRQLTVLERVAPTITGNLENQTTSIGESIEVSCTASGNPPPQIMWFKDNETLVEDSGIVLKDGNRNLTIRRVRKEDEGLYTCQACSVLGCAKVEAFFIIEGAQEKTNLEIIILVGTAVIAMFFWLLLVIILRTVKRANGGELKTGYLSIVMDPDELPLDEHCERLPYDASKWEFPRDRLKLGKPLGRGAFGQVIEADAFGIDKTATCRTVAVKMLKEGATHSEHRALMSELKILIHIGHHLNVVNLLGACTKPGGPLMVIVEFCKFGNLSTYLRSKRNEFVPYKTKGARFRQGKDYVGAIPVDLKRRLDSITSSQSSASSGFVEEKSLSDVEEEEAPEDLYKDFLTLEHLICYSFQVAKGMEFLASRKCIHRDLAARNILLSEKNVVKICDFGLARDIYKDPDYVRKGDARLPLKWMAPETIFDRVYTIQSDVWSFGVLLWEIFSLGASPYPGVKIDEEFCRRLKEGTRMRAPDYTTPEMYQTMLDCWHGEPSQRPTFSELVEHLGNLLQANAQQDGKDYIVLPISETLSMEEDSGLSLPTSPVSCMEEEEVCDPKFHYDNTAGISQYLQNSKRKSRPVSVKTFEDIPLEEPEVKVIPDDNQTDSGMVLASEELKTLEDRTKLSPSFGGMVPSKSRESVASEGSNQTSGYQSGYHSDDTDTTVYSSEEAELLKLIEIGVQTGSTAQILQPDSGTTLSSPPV
Text: A standard cell-based assay for VEGFR2 kinase activity can be used to test or screen the compounds of this invention and to identify VEGFR2 antagonists. In this example, ELISA kits (R&D Systems, Inc., Minneapolis, Minn. 55413, USA) were used.
(§1) The activity of VEGFR2 in cells depended on its autophosphorylation level by various factors including growth factors. In order to induce the cell to produce VEGFR2, full length of VEGFR2 sequence was cloned into PC-DNA3.1 vector, the plasmid was then transfected into CHO cells. After 48 hours, the expression of VEGFR2 in transfected CHO cells was confirmed by regular western blotting.
A compound to be tested was first dissolved in DMSO to a concentration of 10 mM and stored at −20° C. One day before the test, CHO cells transfected with full length VEGFR2 plasmid were grown in Dulbecco's Modified Eagle Medium (DMEM) without the presence of serum. On the day of the test, the compounds with various concentrations in DMSO (from 0.5 nM to 500 nM) were added into DMEM. Two hours later, 20% of FBS (Fetal Bovine Serum) was added into the medium to stimulate the production of phosphor-VEGFR2. Cell lysate from approximately 5×10^5 transfected CHO cells were reacted with anti-phosphor VEGFR2 or anti-total VEGFR2 antibody in 96-well plates, in the presence of detection antibody. The phosphor-VEGFR2 or total VEGFR2 were detected with Streptavidin-HRP(R&D Systems), followed by chemiluminescent detection. The level of VEGFR2 kinase activity was quantified as the ratio between the amount of phosphor- and that of total VEGFR2 proteins.

c-Met = biological target: T2, c-Met (Homo sapiens, UniProt P08581); assay: c-Met cell-based assay (ELISA, phosphor-/total c-Met in transfected CHO cells, HGF stimulated); conditions: compound at 100 nM; CHO cells transfected with full length c-Met; HGF 100 ng/mL
T2 construct: expressed in transfected cells; host or cells: CHO cells
T2 sequence (P08581 25-1390): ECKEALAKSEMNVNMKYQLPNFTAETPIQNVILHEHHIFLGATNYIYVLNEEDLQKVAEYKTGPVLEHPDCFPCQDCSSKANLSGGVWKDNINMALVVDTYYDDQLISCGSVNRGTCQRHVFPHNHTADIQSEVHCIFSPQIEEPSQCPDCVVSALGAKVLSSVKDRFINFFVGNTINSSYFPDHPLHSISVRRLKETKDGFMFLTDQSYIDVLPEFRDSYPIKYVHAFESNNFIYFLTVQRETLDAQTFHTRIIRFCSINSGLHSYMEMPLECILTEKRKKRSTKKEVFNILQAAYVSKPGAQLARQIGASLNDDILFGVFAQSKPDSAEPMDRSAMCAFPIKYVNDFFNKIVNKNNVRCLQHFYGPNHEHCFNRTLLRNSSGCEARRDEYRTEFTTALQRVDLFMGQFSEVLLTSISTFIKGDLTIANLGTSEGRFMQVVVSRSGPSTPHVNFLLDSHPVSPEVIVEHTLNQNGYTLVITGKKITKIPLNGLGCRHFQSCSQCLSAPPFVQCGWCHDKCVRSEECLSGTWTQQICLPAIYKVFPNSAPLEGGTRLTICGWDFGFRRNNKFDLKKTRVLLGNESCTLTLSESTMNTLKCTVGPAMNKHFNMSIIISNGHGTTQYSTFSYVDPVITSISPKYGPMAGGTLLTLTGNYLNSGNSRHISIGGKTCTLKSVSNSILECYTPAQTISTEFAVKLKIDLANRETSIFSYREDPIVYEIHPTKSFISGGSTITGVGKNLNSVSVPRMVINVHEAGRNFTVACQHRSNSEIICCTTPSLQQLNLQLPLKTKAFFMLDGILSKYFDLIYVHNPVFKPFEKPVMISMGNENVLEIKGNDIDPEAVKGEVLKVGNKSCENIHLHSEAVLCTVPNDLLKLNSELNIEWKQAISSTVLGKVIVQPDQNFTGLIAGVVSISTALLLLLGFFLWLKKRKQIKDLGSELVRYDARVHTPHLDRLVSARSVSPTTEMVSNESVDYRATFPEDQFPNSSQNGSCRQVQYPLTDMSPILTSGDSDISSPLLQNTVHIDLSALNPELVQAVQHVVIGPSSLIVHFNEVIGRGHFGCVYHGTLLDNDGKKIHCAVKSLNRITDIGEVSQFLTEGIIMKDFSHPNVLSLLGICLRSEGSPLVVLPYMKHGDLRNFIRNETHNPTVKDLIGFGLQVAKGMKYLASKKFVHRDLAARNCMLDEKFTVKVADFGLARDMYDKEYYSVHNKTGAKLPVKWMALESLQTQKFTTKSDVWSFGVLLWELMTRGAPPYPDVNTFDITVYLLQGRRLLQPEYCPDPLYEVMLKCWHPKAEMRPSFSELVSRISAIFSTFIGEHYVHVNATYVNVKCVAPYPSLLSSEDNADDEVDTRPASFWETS
Text: A standard cell-based assay for c-Met kinase activity can be used to test or screen the compounds of this invention and to identify c-Met antagonists. In this example, ELISA kits (R&D Systems, Inc., Minneapolis, Minn. 55413, USA) were used.
as §1, with “c-Met” for “VEGFR2”, “it specific” for “various factors including”, “factor-Hepatocyte growth factor (HGF).” for “factors.”, “c-Met,” for “VEGFR2,”
A compound to be tested was first dissolved in DMSO to a concentration of 10 mM and stored at −20° C. One day before the screening, CHO cells transfected with full length c-Met plasmid were grown in DMEM medium without the presence of serum. On the day of screening procedure, the compounds with various concentration in DMSO (from 0.5 nM to 500 nM) were added into DMEM medium, two hours later, Hepatocyte growth factor (HGF) was added into the medium at the concentration of 100 ng/mL to stimulate the production of phosphor-c-Met. Cell lysate from approximately 5×10^5 transfected CHO cells were reacted with anti-phosphor c-Met or anti-total c-Met antibody in 96 well plates, in the presence of detection antibody. The phosphor-c-Met or total c-Met were detected with Streptavidin-HRP (R&D Systems), followed by chemiluminescent detection. The level of c-Met kinase activity was quantified as the ratio between the amount of phosphor- and that of total c-Met proteins.

Mouse liver microsome = assay: Liver microsomal stability assay, mouse; type: in vitro ADME; design: key: A: the percentage of a compound remains is greater than that of its deuterium non-enriched counterpart; B: a result otherwise; conditions: 40 μM, 37° C., 30 min, 1 mg/ml microsome proteins; class relative to deuterium non-enriched counterpart
Description: A standard liver microsomal stability assay can be used to test or screen the compounds of this invention and to identify compounds with enhanced metabolic stability due to the enrichment of deuterium in the compounds. Liver microsome proteins prepared from different species such as mouse and rat were obtained from a commercial source (Research Institute for Liver Diseases, Shanghai, China). The assay was conducted in 1.5% potassium hydrogenphosphate (K2HPO4) in the presence of liver microsome proteins at 1 mg/ml and supplemented with an […] (3.3 mM NADPH, 3.3 mM glucose-6-phosphate, 6 units/ml G6PDase, and 3.3 mM magnesium chloride). Test compound was added into the assay mixture to a final concentration of 40 μM and incubated at 37° C. for 0 or 30 minutes. The reaction was stopped by the addition of 20 μM Bifonazole/CAN. Samples were then centrifuged at 14000 rpm for 10 minutes to precipitate proteins. Supernatant were then transferred to microcentrifuge tubes and subject to reverse phase HPLC analysis to determine the concentration of test compound.
The percentage of compounds that remained in the assay reactions after a thirty-minute incubation at 37° C. is calculated as the ratio between the amount of compound remained after a thirty-minute and that after a zero-minute incubation.

SMILES	remaining activity at 0.1 µM (VEGFR2)	% C-Met kinase activity remains (c-Met)	% of compound remained at the 30th minutes, Mouse liver microsome (Mouse liver microsome)
[2H]C(c1c[nH]c2ncccc12)N1CCc2c(NC(=O)Nc3cccc(C)c3)cccc21 (stereo not drawn) [Example 21, 1-[1-[Deuterio(1H-pyrrolo[2,3-b]pyridin-3-yl)methyl]indolin-4-yl]-3-(m-tolyl)urea]	< 70%	B (the percentage is greater or equal to 70%)	A
[2H]C(c1c[nH]c2ncccc12)n1ccc2c(NC(=O)Nc3cccc(C)c3)cccc21 (stereo not drawn) [Example 22, 1-[1-[deuterio(1H-pyrrolo[2,3-b]pyridin-3-yl)methyl]indol-4-yl]-3-(m-tolyl)urea]	< 70%	A (the percentage of kinase activity remains is below 70%)	A
[2H]C([2H])([2H])Oc1ccc(Cl)cc1NC(=O)Nc1cccc2c1CCN2C([2H])([2H])c1ccnc(N)c1 [Example 3, 1-[1-[(2-Amino-4-pyridyl)-dideuteriomethyl]indolin-4-yl]-3-[5-chloro-2-(trideuteriomethoxy)phenyl]urea]	< 70%	A (the percentage of kinase activity remains is below 70%)	B
Cl.[2H]C([2H])([2H])Oc1ccc(Cl)cc1NC(=O)Nc1cccc2c1ccn2C([2H])([2H])c1ccnc2[nH]ccc12 [Example 8, 1-[5-chloro-2-(trideuteriomethoxy)phenyl]-3-[1-[dideuterio(1H-pyrrolo[2,3-b]pyridin-4-yl)methyl]indol-4-yl]urea hydrochloride]	< 70%	A (the percentage of kinase activity remains is below 70%)	A
[2H]C(c1c[nH]c2ncccc12)N1CCc2c(NC(=O)Nc3cc(Cl)ccc3OC([2H])([2H])[2H])cccc21 (stereo not drawn) [Example 15, 1-[5-Chloro-2-(trideuteriomethoxy)phenyl]-3-[1-[deuterio(1H-pyrrolo[2,3-b]pyridin-3-yl)methyl]indolin-4-yl]urea]	< 70%	A (the percentage of kinase activity remains is below 70%)	B
[2H]C([2H])([2H])Oc1ccc(Cl)cc1NC(=O)Nc1cccc2c1ccn2Cc1ccnc(N)c1 [Example 6, 1-[1-[(2-amino-4-pyridyl)methyl]indol-4-yl]-3-[5-chloro-2-(trideuteriomethoxy)phenyl]urea]	≥ 70%	A (the percentage of kinase activity remains is below 70%)	B
[2H]C([2H])(c1ccnc2[nH]ccc12)N1CCc2c(NC(=O)Nc3cc(Cl)ccc3OC)cccc21 [Example 9, 1-(5-Chloro-2-methoxyphenyl)-3-[1-[dideuterio(1H-pyrrolo[2,3-b]pyridin-4-yl)methyl]indolin-4-yl]urea hydrochloride]	< 70%	A (the percentage of kinase activity remains is below 70%)	A
[2H]C(c1c[nH]c2ncccc12)n1ccc2c(NC(=O)Nc3cc(Cl)ccc3F)cccc21 (stereo not drawn) [Example 20, 1-(5-chloro-2-fluorophenyl)-3-[1-[deuterio(1H-pyrrolo[2,3-b]pyridin-3-yl)methyl]indol-4-yl]urea]	< 70%	A (the percentage of kinase activity remains is below 70%)	B
[2H]C([2H])([2H])Oc1ccc(Cl)cc1NC(=O)Nc1cccc2c1CCN2Cc1ccnc(N)c1 [Example 5, 1-[1-[(2-Amino-4-pyridyl)methyl]indolin-4-yl]-3-[5-chloro-2-(trideuteriomethoxy)phenyl]urea]	< 70%	A (the percentage of kinase activity remains is below 70%)	B
[2H]C([2H])(c1ccnc2[nH]ccc12)n1ccc2c(NC(=O)Nc3cccc(C)c3)cccc21 [Example 14, 1-[1-[dideuterio(1H-pyrrolo[2,3-b]pyridin-4-yl)methyl]indol-4-yl]-3-(m-tolyl)urea hydrochloride]	< 70%	A (the percentage of kinase activity remains is below 70%)	A
[2H]C([2H])(c1ccnc2[nH]ccc12)n1ccc2c(NC(=O)Nc3cc(Cl)ccc3F)cccc21 [Example 12, 1-(5-chloro-2-fluorophenyl)-3-[1-[dideuterio(1H-pyrrolo[2,3-b]pyridin-4-yl)methyl]indol-4-yl]urea hydrochloride]	< 70%	A (the percentage of kinase activity remains is below 70%)	B
[2H]C(c1c[nH]c2ncccc12)n1ccc2c(NC(=O)Nc3cc(Cl)ccc3OC([2H])([2H])[2H])cccc21 (stereo not drawn) [Example 16, 1-[5-chloro-2-(trideuteriomethoxy)phenyl]-3-[1-[deuterio(1H-pyrrolo[2,3-b]pyridin-3-yl)methyl]indol-4-yl]urea]	< 70%	A (the percentage of kinase activity remains is below 70%)	A
[2H]C(c1c[nH]c2ncccc12)N1CCc2c(NC(=O)Nc3cc(Cl)ccc3OC)cccc21 (stereo not drawn) [Example 17, 1-(5-Chloro-2-methoxyphenyl)-3-[1-[deuterio(1H-pyrrolo[2,3-b]pyridin-3-yl)methyl]indolin-4-yl]urea]	< 70%	A (the percentage of kinase activity remains is below 70%)	A
[2H]C(c1c[nH]c2ncccc12)n1ccc2c(NC(=O)Nc3cc(Cl)ccc3OC)cccc21 (stereo not drawn) [Example 18, 1-(5-chloro-2-methoxyphenyl)-3-[1-[deuterio(1H-pyrrolo[2,3-b]pyridin-3-yl)methyl]indol-4-yl]urea]	< 70%	A (the percentage of kinase activity remains is below 70%)	A
[2H]C([2H])(c1ccnc2[nH]ccc12)N1CCc2c(NC(=O)Nc3cc(Cl)ccc3F)cccc21 [Example 11, 1-(5-Chloro-2-fluorophenyl)-3-[1-[dideuterio(1H-pyrrolo[2,3-b]pyridin-4-yl)methyl]indolin-4-yl]urea hydrochloride]	< 70%	A (the percentage of kinase activity remains is below 70%)	B
